Test results as given in patent US5756471A, “Use of a sophorolipid to provide free radical formation inhibiting activity or elastase inhibiting activity” (Institut Francais du Petrole, priority 1994, dated 1998).

Tests used:
[1] = system: human fibroblasts; experiment: Anti-radical effect on human fibroblasts (UVA); conditions: 200 μg/ml, in the absence of UVA
[2] = system: elastase; experiment: Anti-elastasic activity on human skin section
Source text: The elastin substrate was that which exists in human skin.
That result was expected and acted to validate the test.

[3] = target: pancreatic elastase (Sus scrofa, UniProt P00772); experiment: Anti-elastasic activity, test in semi-solid medium (elastin in gelose); type: biochemical; conditions: 10 mM
Protocol: Principle: Inhibition of the degradation of elastin contained in gelose by elastase
The anti-elastase activity of acid sophorolipids was evaluated using a semi-quantitative technique. The enzymatic solution, associated or otherwise with the test compound or with the reference molecule, was deposited in hollows in gelose containing the substrate, elastin.
The enzyme diffused into the gelose and digested the elastin.
This phenomenon was shown as a lightening of the gelose in the digestion zone, which zone was measured.

[4] = Anti-radical activity (EPR method); conditions: hydroxyl radical EPR signal
Protocol: The anti-radical effect of crude and acid sophorolipids was evaluated with respect to a free radical derived from oxygen and which is particularly important in pathology, namely the hydroxyl radical. Electron paramagnetic resonance spectrometry (EPR) was used. A molecule which traps free radicals reduces the signal. EPR measurements were carried out using a Brucker ECS106 spectrometer at ambient temperature. The hydroxyl radical (OH^.) was produced by photolysis (UVB) of hydrogen peroxide in aqueous solution. Mannitol was used as a reference molecule (positive control).

Chain of pancreatic elastase (P00772 27-266): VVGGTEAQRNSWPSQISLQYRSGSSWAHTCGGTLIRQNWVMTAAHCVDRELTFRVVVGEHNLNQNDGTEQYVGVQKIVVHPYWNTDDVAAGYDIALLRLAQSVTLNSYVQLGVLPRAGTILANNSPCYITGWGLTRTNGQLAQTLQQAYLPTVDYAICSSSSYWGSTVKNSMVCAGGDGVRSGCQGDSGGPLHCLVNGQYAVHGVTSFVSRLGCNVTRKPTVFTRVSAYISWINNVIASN

With CC(=O)Oc1c(C)c(C)c2c(c1C)CCC(C)(CCC[C@H](C)CCC[C@H](C)CCCC(C)C)O2 (some centres unmarked) [Acetate of vitamin E, acetate of vitamin E] the toxicity for cells [1] was “not toxic”.

With [Cl][Hg][Cl] [HgCl2, mercury chloride] the “Degradation of elastin fibres” value ([2]; 0.125 % (w/v)) was “None”, the “inhibition of elastase activity” value ([2]; reference molecule) was “dose-dependent manner” and the enzymatic inhibition [3] was “total”. The “Diameter of digestion zone” value ([3]; 6 hours incubation) was 0 cm and the “Diameter of digestion zone” value ([3]; 21 hours incubation) was 0 cm.

With OC[C@@H](O)[C@@H](O)[C@H](O)[C@H](O)CO [Mannitol] the trapping activity ([4]; 10 mM) was 98% and the “% anti-radical protection” value ([4]; 0.182% (w/v)) was 98%.
